Assay results taken from US20050013914A1, “Method of sustaining aroma and use thereof” (priority 2001, published 2005).

Tests used:
Assay type in all cases: physicochemical
[1] = Adsorption of liquid ethanol or acetic acid on saccharide powder (Example C-1); details: until mixture did not keep a powder form; for Amount of Adsorbed Acetic Acid: acetic acid adsorbed on 1 g of saccharide; for Amount of Adsorbed Ethanol: ethanol adsorbed on 1 g of saccharide
Text: CTS crystalline pentahydrate, prepared by the method described in Example B-3, CTS crystalline monohydrate, prepared by the method described in Example B-4, CTS crystalline anhydrate, prepared by the method described in Example B-5, or CTS amorphous anhydrate prepared by the method described in Example B-6, was used for preparation of aroma-retaining material. “ISOELEAT P™”, a branched cyclodextrin commercialized by Maruha corporation, Tokyo, Japan, anhydrous trehalose prepared by the method described in Japanese Patent Kokai No. 111,284/97, “PINEFIBRE™”, a dextrin commercialized by Matsutani Chemical Industries Co., Ltd., Tokyo, Japan, or soluble starch in a reagent grade commercialized by Katayama Chemical Industries, Co., Ltd., Tokyo, Japan, was dried in vacuo at 80° C. for 16 hours as control saccharides. […] The resulting mixture was weighed. The weight of ethanol or acetic acid was calculated by subtracting the pre-measured saccharide weight. The weight of ethanol or acetic acid adsorbed on 1 g of each saccharide was in Table 1.

[2] = Effect of suppressing volatilization: retained ethanol by gas chromatography (Example C-2); details: for Amount of Retained Ethanol: per 1 g of material
Description: About 5 g of an ethanol-retaining material with CTS crystalline anhydrate, branched cyclodextrin, anhydrous trehalose, or dextrin, prepared freshly by the method described in Example C-1, was taken into a 20 ml volume of glass vials. The vials were placed under normal pressure and room temperature for the purpose of evaporating ethanol. The amount of retained ethanol in samples freshly prepared, or after two hours later, four hours later, eight hours later, or 24 hours later, was measured by dissolving each sample in about 10 ml of water, diluting it with water to give a volume of 100 ml in a glass measuring flask, and measuring the amount of ethanol dissolved in the resulting aqueous solution by a gas chromatography. In the case of a soluble starch as a sample, additional centrifuging was carried out after diluting up to 100 ml. The above gas chromatography was carried out using “GC-14B” (a gas liquid chromatography commercialized by Shimazu Corporation, Kyoto, Japan) equipped with “TC-5” (a capillary column sized 0.53 mm in diameter and 15 m in length, commercialized by GL Sciences Inc., Tokyo, Japan). The amount of retained ethanol per 1 g of each material is in Table 2.
In this table, each value in the parentheses means a relative percentage to the ethanol amount (100%) just after its preparation.

[3] = Adsorption and 10-day retention of lavender oil, citronellol or phenethyl alcohol on saccharides (Example C-4); details: for Amount of the Adsorbed Substance: freshly prepared sample; for Relative Amount of the Retained Substance: preserved at 25° C. for 10 days vs freshly prepared
Text: The following example is a test to confirm the effect of CTS crystalline hydrate, CTS crystalline anhydrate, or CTS amorphous anhydrate on retaining, as an aromatic substance, lavender oil, citronellol, or phenethyl alcohol. CTS crystalline pentahydrate prepared by the method described in Example B-3, CTS crystalline anhydrate in Example B-5, and CTS amorphous anhydrate in Example B-6 were used as the test saccharides “ISOELEAT P®”, a branched cyclodextrin commercialized by Maruha Corporation, Tokyo, Japan, was used as a control.
In the case of lavender oil, five parts by weight of each of the above saccharides were taken into a glass dish sized 90 mm in diameter and 20 mm in depth, admixed with one part by weight of lavender oil by stirring. Lavender oil was measured by the method described as follows; admixing 2 ml of diethyl ether with 1 g of each of the above samples freshly prepared or after preserved at 25° C. for 10 days; measuring the extracted lavender oil by gas chromatography using “GC-14B” (a gas chromatography commercialized by Shimazu corporation, Kyoto, Japan) equipped with “TC-Wax” (a capillary column sized 0.53 mm in diameter and 25 m in length commercialized by GL Sciences Inc., Tokyo, Japan.
In the case of citronellol or phenethyl alcohol, five parts by weight of each of the above saccharides were taken into a glass dish sized 90 mm in diameter and 20 mm in depth, admixed with one part by weight of citronellol or phenethyl alcohol, and mixed by stirring. The adsorbed citronellol or phenethyl alcohol was measured by admixing 2 ml of diethyl ether with 1 g of each of the above sample freshly prepared or after preserved at 25° C. for 10 days, and measuring the extracted lavender oil by gas chromatography using “GC-14B” (a gas chromatography device commercialized by Shimazu corporation, Kyoto, Japan) equipped with “DB-5” (a capillary column sized 0.25 mm in diameter and 30 m in length commercialized by GL Sciences Inc., Tokyo, Japan).
The amount of the retained aromatic substance in each sample was calculated using the following formula, and the results were shown in Table 4.
Formula: Relative amount of the retained Substance (%)={(an amount of aromatic substance in a sample preserved for 10 days)/(an amount of aromatic substance in a freshly prepared sample)}×100

[4] = 2 h later, normal pressure, room temperature
[5] = 4 h later, normal pressure, room temperature
[6] = 8 h later, normal pressure, room temperature
[7] = 24 h later, normal pressure, room temperature
[8] = citronellol, listed as Sample 2
[9] = lavender oil, listed as Sample 2
[10] = phenethyl alcohol, listed as Sample 2

SMILES	Amount of Adsorbed Acetic Acid [1]	Amount of Adsorbed Ethanol [1]	Relative percentage to the ethanol amount just after preparation ([2]; 2 h later)	Relative percentage to the ethanol amount just after preparation ([2]; 4 h later)	Relative percentage to the ethanol amount just after preparation ([2]; 8 h later)	Relative percentage to the ethanol amount just after preparation ([2]; 24 h later)	Relative percentage to the ethanol amount just after preparation ([2]; freshly prepared)	Amount of Retained Ethanol [2, 4]	Amount of Retained Ethanol [2, 5]	Amount of Retained Ethanol [2, 6]	Amount of Retained Ethanol [2, 7]	Amount of Retained Ethanol ([2]; freshly prepared)	further results
OCC1OC2OCC3O[C@H](O[C@H]4C(O)C(CO)OC(OCC5O[C@H](O[C@@H](C1O)C2O)C(O)C(O)[C@@H]5O)C4O)C(O)C(O)[C@@H]3O (some centres unmarked) [CTS crystalline anhydrate]	0.47 g	0.50 g	(101%)	(87%)	(3%)	(2%)	(100%)	335 mg	290 mg	10 mg	5 mg	333 mg	Adsorbing capability relative to branched cyclodextrin ([3]; citronellol): about 1.2 fold; Amount of the Adsorbed Substance ([3]; citronellol): 195 mg/g saccharide; Amount of the Adsorbed Substance [3, 8]: 195 mg/g saccharide; Relative Amount of the Retained Substance [3, 8]: 42%; Adsorbing capacity relative to branched cyclodextrin ([3]; lavender oil): about 1.3 fold; Amount of the Adsorbed Substance ([3]; lavender oil): 190 mg/g saccharide; Amount of the Adsorbed Substance [3, 9]: 190 mg/g saccharide; Relative Amount of the Retained Substance [3, 9]: 12%; Amount of the Adsorbed Substance ([3]; phenethyl alcohol): 190 mg/g saccharide; Amount of the Adsorbed Substance [3, 10]: 190 mg/g saccharide; Relative Amount of the Retained Substance [3, 10]: 16%
OC[C@H]1O[C@H](O[C@H]2O[C@H](CO)[C@@H](O)[C@H](O)[C@H]2O)[C@H](O)[C@@H](O)[C@@H]1O [Anhydrous trehalose, reference compound]	0.18 g	0.25 g	(51%)	(8%)	(4%)	(2%)	(100%)	103 mg	17 mg	8 mg	5 mg	203 mg	
